The values that follow come from PMC10878790 (The Journal of Biological Chemistry, 2024).

Read-outs that look alike come from different tables or passages of the source. Some results are limits rather than exact numbers.

The subject of data set [1] is MDA-MB-231 cells. The data set can be described thus: Wound healing assay. To be noted: identical concentrations of D- and L-isomer. The format is cell-based. As for the experimental part: The wound healing assay was performed using two breast cancer cell lines, MDA-MB-231 and MCF-7, and two prostate cancer cell lines, PC-3 and DU-145, to evaluate the antimigratory capacity of the peptides. […] The cells were grown to approximately 80% confluency in 12-well tissue culture plates, and a cell-free area was created by scraping the monolayer. The peptides were added, and the cells were incubated at 37 °C with 5% CO2 for 24 h. Wound closure was assessed by imaging the wounds at 0 and 24 h, and the wound areas were quantified using ImageJ software (https://imagej.net/ij/). In the transwell invasion assay, MDA-MB-231 cells were serum starved for 4 h followed by a pretreatment with increasing concentrations of each peptide in a 0.1% serum-containing DMEM for 24 h. The cells were then trypsinized, resuspended in same media for the second treatment of peptides, and counted. Next, 40,000 cells were resuspended in 0.1% serum containing DMEM and added to the upper chamber of Transwell plates (Corning Life Sciences) with a polyethylene terephthalate membrane (6.4 mm diameter, 8 μm pore size). The bottom chambers were filled with DMEM containing 10% FBS as a chemoattractant. The transwell plates were incubated at 37 °C with 5% CO2 for 24 h to allow the invasion of cells through the membrane. The invaded cells on the lower side of the membrane were fixed with 4% paraformaldehyde for 15 min, followed by a PBS wash. The membrane inserts were further fixed with ice-cold methanol for 20 min and stained with 0.25% (w/v) crystal violet. After incubation, the noninvasive cells on the upper surface of the membrane were gently removed using a cotton swab. Random fields were chosen for imaging, and the number of invaded cells was counted using ImageJ software. The results were expressed as the average number of invaded cells compared with the control.

Data set [2] relates to MDA-MB-231 cells. The data set can be described thus: Western blot of MIEN1 signaling pathway proteins. The class given is cell-based. To be noted: mean values of immunoblot densitometry. As to the method:
Cells were exposed to the peptides and subjected to Western blot analysis with the indicated antibodies. […] Cytoplasmic and nuclear cell lysate extracts of EGF only and EGF plus peptide-treated cells were probed for p65 and p50. Lamin A/C and β-actin were used as nuclear and cytoplasmic loading control respectively. Densitometry was determined with immunoblots (N = 3) and normalized to total protein or β-actin for whole cell lysates and cytoplasmic fraction of peptide-treated MDA-MB-231 cells. In case of nuclear lysates, the immunoblots were normalized with Lamin A/C. Bar graphs are densitometric data (means ± SD). […] EGF concentration: (10 ng/ml); Peptide concentration: 90 μM. EGF, epidermal growth factor; MIEN1, migration and invasion enhancer 1; NF-κB, nuclear factor kappa B.
Western blot analysis was performed according to standard protocols to assess the effects of MIEN1-derived peptides and their analogs on MDA-MB-231 cells and DU-145 cells. Cell lysates were prepared using radioimmunoprecipitation assay buffer and quantified for protein content by bicinchoninic acid method. […] Protein blocking with 5% bovine serum albumin was followed by incubation with primary antibodies specific to various proteins at 4 °C for 8 to 10 h. The membrane was then washed three times in Tris Buffered Saline with Tween 20 and incubated with the appropriate secondary antibody. Protein bands were visualized using the Alpha Innotech chemiluminescent detection system. In case of MDA-MB-231 cells, cytoplasmic and nuclear extracts were isolated to investigate the effects of peptides and/or EGF stimulation. Prior to exposure to the cells, the test peptides (90 μM) were incubated with EGF (10 ng/ml) in media at 4 °C for 15 min. The untreated MDA-MB-231 cells received EGF alone at the same concentration. The isolation of cytoplasmic and nuclear fractions was performed using the Subcellular Protein Fractionation Kit for Cultured Cells from Thermo Fisher Scientific (cat #78840) following the manufacturer's guidelines. For Western blot experiments, 20 μg of purified cytoplasmic and nuclear fraction was used.
Densitometry analysis of Western blot data was conducted using the AlphaView-FluorChem HD2 software of the Alpha Innotech chemiluminescent detection system (https://www.cambridgescientific.com/product/alpha-innotech-fluorchem-hd2-gel-imaging-system). To quantify band intensities, a uniform rectangle was drawn around each band, and background subtraction was applied to determine the total pixel density for each lane. Further calculations, including the determination of the ratio of phosphorylated proteins to total proteins or other loading controls, were carried out using Microsoft Excel. […]
In general terms: A western blot detects proteins with antibodies after separation by electrophoresis.

Data set [3] can be described thus: in vitro. As to conditions: microsomes. As for the experimental part: An NADPH-regenerating system (1.7 mg/ml NADP, 7.8 mg/ml glucose-6-phosphate, 6 U/ml glucose-6-phosphate dehydrogenase in 2% w/v NaHCO3/10 mm MgCl2) was added for analysis of Phase I metabolism after heating both the regenerating solution and the sample tubes to 37 °C for 5 min in a 37 °C shaking water bath. The incubation was continued and at varying time points after addition of phase I cofactors, the reaction was stopped by the addition of 0.5 ml of acetonitrile containing IS and formic acid such that the final concentration of IS was 100 ng/ml and acid was 0.1%. Time 0 samples were stopped with the acetonitrile solution while still on ice prior to addition of the NADPH regenerating system and compound, which were subsequently added. The samples were incubated for 10 min at room temperature and then spun at 16,100g for 5 min in a microcentrifuge at 4 °C. The supernatant was analyzed by LC-MS/MS. The method described by McNaney et al. was used with modification for determination of metabolic stability half-life by substrate depletion ([59]). A “% remaining” value was used to assess the metabolic stability of a compound over time. The LC-MS/MS peak area of the incubated sample at each time point was divided by the LC-MS/MS peak area of the time 0 (T0) sample and multiplied by 100. The natural Log (LN) of the % remaining of compound was then plotted versus time (in min) and a linear regression curve was plotted going through y-intercept at LN (100).

The nature of data set [4]: in vitro. As to conditions: plasma. As to the method:
CD1 mouse plasma isolated using acidified citrate dextrose was purchased from BioIVT. Each peptide's dimethyl sulfoxide stock was then mixed into the plasma, resulting in a 2 μM final concentration. An aliquot was immediately collected for a zero time point and quenched with an equal volume of acetonitrile containing 0.2% formic acid and 200 ng/ml tolbutamide IS. […] Samples were withdrawn at specific intervals and processed similarly to the zero time point. The supernatant obtained after vortexing and centrifugation was subjected to LC-MS/MS analysis as previously detailed. A control incubation was performed using 0.9% NaCl (saline).

The conditions of data set [5]: mouse, in vivo, iv, 5 mg/kg.
The nature of the next data set: in vivo. To be noted: female, CD1, mouse, iv, 5 mg/kg.
Data set [6] in a line: Pharmacokinetic studies in CD1 mice. To be noted: mouse, in vivo, iv, 5 mg/kg.

The term amount remaining denotes what is left of the initial amount, in per cent. The low end stands for a greater loss, the high end for greater stability. In general, half-life refers to how long it takes for the measured level to halve. The low end stands for fast loss, the high end for slow loss. A word on the AUC(0-t): it is the area under the concentration-time curve up to a stated or last time point. A lower AUC(0-t) goes with less exposure. By Cmax is commonly meant the highest concentration seen after dosing. The clearance is the volume of plasma or blood freed of the substance per unit of time. Higher therefore signals a high capacity for elimination. Broadly, the MRT is the average time that molecules of a dose stay in the body. Broadly, the Tmax is the time from dosing to the highest level. The term Vd denotes the apparent volume that relates the amount in the body to the concentration in plasma or blood. Read a high Vd as extensive tissue distribution.

With `CC[C@@H](C)[C@@H](NC(=O)[C@@H](C)NC(=O)[C@@H](CC(C)C)NC(C)=O)C(=O)N[C@H](C)C(=O)N[C@@H](C(=O)N[C@H](CCCCN)C(N)=O)C(C)C` [D-LA3IK], in the data set on MDA-MB-231 cells [1], the “decrease in cell migration compared to L counterpart” value is given as 30.2%. Moreover, in the data set with MDA-MB-231 cells [2], the “greater inhibition of FAK phosphorylation than L-peptide counterpart” value came to 34.2% and the “greater inhibition of SRC phosphorylation than L-peptide counterpart” value was found to be 48.8%. In the data set “in vitro [3]” (male, Institute of Cancer Research/CD-1, mouse, pH 7.5), the fraction remaining at 2 h, 2 μM turned out to be 100%. In addition, the half-life in “in vitro [3]” (mouse) was > 2 h. The molecule further returned an amount remaining at 24 h, 2 μM in “in vitro [4]” (CD1, mouse) of 75%. In the data set “in vitro [4]” (mouse), the half-life is > 24 h. In data set [5], this molecule showed an AUC(0-t) of 3400 ng·h/mL, a maximum concentration (Cmax) of 3570 ng/mL, a clearance of 24.5 mL/min/kg and a half-life of 3.58 h. Also, in the data set “in vivo”, the MRT was 1.03 h, the Tmax was 4.8 min and the Vd is 7.58 L/kg. For the same molecule, in data set [6], the Vd amounted to 1.57 L/kg.
